Source: patent publication US20110178104A1, “Anti-Heparin Compounds” (POLYMEDIX INC., priority 2010, published 2011)
Converted amounts (≈) assume the structure as drawn.

Experiments:
enoxaparin (ENOX) = experiment: FXa chromogenic assay (absence of plasma), enoxaparin; conditions: enoxaparin 0.1 μg/mL, absence of plasma
Protocol: (§2) Human antithrombin was mixed with an anticoagulant agent (a LMWH or fondaparinux); final concentrations were 0.22 μg/mL for the LMWHs and 0.07 μg/mL for fondaparinux. […] Absorbance was read every 30 seconds over a 4 minute period in a SpectraMax 250 instrument (Molecular Devices, Inc.). EC50 values are determined by a curve-fit program (SoftMax Pro) using the following formula:
(§3) FXa Chromogenic Assay (absence of plasma). Human antithrombin was mixed with an anticoagulant (a LMWH or fondaparinux); final concentrations were 0.1 μg/mL for the LMWHs and 0.02 μg/mL for fondaparinux. […] Absorbance was read every 30 seconds over a 4 minute period in a SpectraMax 250 instrument (Molecular Devices Inc.™) The slope of absorbance vs time was calculated for each compound concentration. EC50 values were determined using a curve fit program (GraphPad Prism 5).

[1] = system: unfractionated heparin (UFH); experiment: aPTT clotting assay, UFH 0.2 U/mL in plasma (Example 7); type: biochemical; conditions: UFH 0.2 U/mL in plasma
Protocol: (§1) aPTT clotting Assay. Unfractionated heparin was mixed with plasma at a final concentration of 0.2 U/mL. […] The ACL Elite Hemostasis analyzer (Beckman Coulter™) was used to add aPTT reagent (HemosIL SynthASil) to supplemented plasma. Clotting was initiated by addition of CaCl2 and time to clot was recorded.

fondaparinux (FONDAPX) = experiment: FXa chromogenic assay (absence of plasma), fondaparinux; conditions: fondaparinux 0.02 μg/mL, absence of plasma
Protocol: as §2, §3

[2] = system: isolated human erythrocytes; experiment: in vitro; type: cell-based; conditions: human RBC, 1 hour at 37° C.; for EC50: Homo sapiens, Erythrocyte, 1 h, read-out: Hemolysis EC50
Protocol: Hemolysis assay: Cytotoxicity was also evaluated in a hemolysis assay using isolated human erythrocytes. Pooled whole human blood was centrifuged to separate the red blood cells (RBC). The isolated RBCs were rinsed and diluted in Tris-buffered saline (TBS buffer, pH 7.4) to obtain a 0.22% RBC stock suspension. Serial two-fold dilutions of test agent were assayed over a concentration range of 1000 to 0.48 μg/ml with shaking for 1 hour at 37° C. At the conclusion of the incubation time, samples were centrifuged and 30 μl of the supernatant was added to 100 μl H2O. OD405 measurements were read for hemoglobin concentration. The bee venom peptide melittin was used as a positive control. EC50 values were determined using a four parameter logistic equation: Y=Bottom+(Top-Bottom)/(1+10̂((LogEC50-X)*HillSlope)).

Unfractionated heparin = experiment: aPTT clotting assay, UFH 0.4 U/mL in plasma (Example 10); type: biochemical; conditions: unfractionated heparin 0.4 U/mL in plasma; aPTT clotting
Protocol: as §1, with “Assay:” for “Assay.”, “0.4 U/mL (or concentration which increases aPTT time to between 120 and 300 seconds).” for “0.2 U/mL.”

tinzaparin = experiment: FXa amidolytic assay (Example 10), tinzaparin; conditions: read-out: Tinzap FXa EC50; tinzaparin 0.1 ug/ml; human antithrombin, bovine Factor Xa
Protocol: (§4) Two μl of test agent are added (range between 0.01 and 23 ug/ml) and incubated for 5 minutes at 23° C. Bovine Factor Xa was added to a final concentration of 0.636 nkat/mL and incubated for a further 10 minutes at 23° C.

fondaparinux = experiment: FXa amidolytic assay (Example 10), fondaparinux; conditions: read-out: Fondap FXa EC50; fondaparinux 0.02 μg/mL; human antithrombin, bovine Factor Xa
Protocol: as §4

enoxaparin = experiment: FXa amidolytic assay (Example 10), enoxaparin; conditions: read-out: Enox FXa EC50; enoxaparin 0.1 ug/ml; human antithrombin, bovine Factor Xa
Protocol: as §4

| Compound | ENOX (FXa) EC50 (enoxaparin (ENOX)) | UFH (aPTT) EC50 [1] | FONDAPX (FXa) EC50 (fondaparinux (FONDAPX)) | Hemolysis EC50 [2] | EC50 (Unfractionated heparin) [nM] | EC50 (tinzaparin) [nM] | EC50 (fondaparinux) [nM] | EC50 (enoxaparin) [nM] | EC50 [2] [µg/mL] |
| --- | --- | --- | --- | --- | --- | --- | --- | --- | --- |
| COc1ccc(NC(=O)[C@H](CCCNC(N)=O)NC(=O)c2cc(NC(=O)[C@H](CCCCN)NC(=O)c3cc(NC(=O)[C@H](CCCCN)NC(=O)c4cc(NC(=O)[C@@H](N)CCCCN)ccc4OC)ccc3OC)ccc2OC)cc1C(N)=O [Compound 140] | 0.4309 µg/mL | 2.52 µg/mL | 4.636 µg/mL | – | – | – | – | – | – |
| COc1ccc(NC(=O)[C@H](CCCCN)NC(=O)c2cc(NC(=O)[C@@H](N)CCCCN)ccc2OC)cc1C(=O)N[C@@H](CCCCN)C(=O)Nc1ccc(SC)c(C(=O)N[C@@H](CCCCN)C(=O)Nc2ccc(SC)c(C(N)=O)c2)c1 [Compound 141] | inactive | inactive | inactive | – | – | – | – | – | – |
| COc1ccc(NC(=O)[C@H](CCCCN)NC(=O)c2cc(NC(=O)[C@H](CCCCN)NC(=O)c3cc(NC(=O)[C@H](CCCCN)NC(=O)c4cc(NC(=O)[C@@H](N)CCCCN)ccc4OC)ccc3OC)ccc2OC)cc1C(=O)N[C@@H](CCCNC(N)=O)C(=O)O [Compound 142] | 0.592 µg/mL | 2.88 µg/mL | 7.045 µg/mL | – | – | – | – | – | – |
| COc1ccc(NC(=O)[C@H](CCCCN)NC(=O)c2cc(NC(=O)[C@H](CCCCN)NC(=O)c3cc(NC(=O)[C@H](CCCCN)NC(=O)c4cc(NC(=O)[C@@H](N)CCCCN)ccc4OC)ccc3OC)ccc2OC)cc1C(=O)NCCCCCC(=O)O [Compound 143] | 1.011 µg/mL | 2.96 µg/mL | 12.700 µg/mL | – | – | – | – | – | – |
| COc1ccc(NC(=O)[C@H](CCCCN)NC(=O)c2cc(NC(=O)[C@H](CCCCN)NC(=O)c3cc(NC(=O)[C@H](CCCCN)NC(=O)c4cc(NC(=O)[C@@H](N)CCCCN)ccc4OC)ccc3OC)ccc2OC)cc1C(=O)Nc1cccc(C(=O)O)c1 [Compound 144] | 0.244 µg/mL | 3.13 µg/mL | 1.051 µg/mL | – | – | – | – | – | – |
| COc1ccc(NC(=O)[C@H](CCCCN)NC(=O)c2cc(NC(=O)[C@H](CCCCN)NC(=O)c3cc(NC(=O)[C@H](CCCCN)NC(=O)c4cc(NC(=O)[C@@H](N)CCCCN)ccc4OC)ccc3OC)ccc2OC)cc1C(=O)N[C@@H](CCC(=O)O)C(=O)O [Compound 145] | 1.141 µg/mL | 4.26 µg/mL | 9.463 µg/mL | – | – | – | – | – | – |
| COc1ccc(NC(=O)[C@H](CCCCN)NC(=O)c2cc(NC(=O)[C@@H](N)CCCCN)ccc2OC)cc1C(=O)N[C@@H](CCCCN)C(=O)Nc1ccc(OC)c(C(=O)N[C@@H](CCCCN)C(=O)Nc2ccc(OC)c(C(=O)N[C@H](C)C(=O)O)c2)c1 [Compound 146] | 1.027 µg/mL | 2.74 µg/mL | 19.030 µg/mL | – | – | – | – | – | – |
| COc1ccc(NC(=O)[C@H](CCCCN)NC(=O)c2cc(NC(=O)[C@H](CCCCN)NC(=O)c3cc(NC(=O)[C@H](CCCCN)NC(=O)c4cc(NC(=O)[C@@H](N)CCCCN)ccc4OC)ccc3OC)ccc2OC)cc1C(=O)N[C@@H](Cc1ccc(O)cc1)C(=O)O [Compound 265] | – | – | – | no significant decrease | 1450 | 120 | 385 | 138 | – |
| COc1ccc(NC(=O)[C@@H](CCCNC(=N)N)NC(=O)c2cc(NC(=O)[C@@H](CCCNC(=N)N)NC(=O)c3cc(NC(=O)[C@@H](CCCNC(=N)N)NC(=O)c4cc(NC(=O)[C@H](N)CCCNC(=N)N)ccc4OC)ccc3OC)ccc2OC)cc1C(=O)NCC(=O)O [Compound 278] | – | – | – | no significant decrease | 1990 | 132 | 408 | 150 | – |
| COc1ccc(NC(=O)[C@H](CCCNC(=N)N)NC(=O)c2cc(NC(=O)[C@H](CCCNC(=N)N)NC(=O)c3cc(NC(=O)[C@H](CCCNC(=N)N)NC(=O)c4cc(NC(=O)[C@@H](N)CCCNC(=N)N)ccc4OC)ccc3OCC(=O)O)ccc2OC)cc1C(N)=O [Compound 288] | – | – | – | no significant decrease | 2020 | 102 | 390 | 119 | – |
| COc1ccc(NC(=O)[C@H](CCCNC(=N)N)NC(=O)c2cc(NC(=O)[C@H](CCCNC(=N)N)NC(=O)c3cc(NC(=O)[C@H](CCCNC(=N)N)NC(=O)c4cc(NC(C)=O)ccc4OC)ccc3OC)ccc2OC)cc1C(N)=O [Compound 298] | – | – | – | no significant decrease | 2060 | 167 | 334 | 201 | – |
| COc1ccc(NC(=O)[C@@H](CCCNC(=N)N)NC(=O)c2cc(NC(=O)[C@@H](CCCNC(=N)N)NC(=O)c3cc(NC(=O)[C@@H](CCCNC(=N)N)NC(=O)c4cc(NC(=O)[C@H](N)CCCNC(=N)N)ccc4OC)ccc3OC)ccc2OC)cc1C(=O)N[C@H](Cc1c[nH]c2ccccc12)C(=O)O [Compound 303] | – | – | – | – | > 10000 | 189 | 146 | 192 | ~500 (≈ 351 µM) |
| COc1ccc(NC(=O)[C@@H](CCCNC(=N)N)NC(=O)c2cc(NC(=O)[C@@H](CCCNC(=N)N)NC(=O)c3cc(NC(=O)[C@@H](CCCNC(=N)N)NC(=O)c4cc(NC(=O)[C@H](N)CCCNC(=N)N)ccc4OC)ccc3OCC(=O)O)ccc2OC)cc1C(=O)N[C@H](Cc1c[nH]c2ccccc12)C(N)=O [Compound 307] | – | – | – | – | 3780 | 118 | 118 | 120 | ~50 (≈ 34 µM) |
| COc1ccc(NC(=O)[C@@H](CCCNC(=N)N)NC(=O)c2cc(NC(=O)[C@@H](CCCNC(=N)N)NC(=O)c3cc(NC(=O)[C@@H](CCCNC(=N)N)NC(=O)c4cc(NC(C)=O)ccc4OC)ccc3OCC(=O)O)ccc2OC)cc1C(=O)N[C@H](Cc1c[nH]c2ccccc12)C(N)=O [Compound 308] | – | – | – | – | > 10000 | 136 | 192 | 157 | ~500 (≈ 369 µM) |
| COc1ccc(NC(=O)[C@H](CCCCN)NC(=O)c2cc(NC(=O)[C@H](CCCCN)NC(=O)c3cc(NC(=O)[C@H](CCC(=O)O)NC(=O)c4cc(NC(=O)[C@@H](N)CCCCN)ccc4OC)ccc3OC)ccc2OC)cc1C(N)=O [Compound 317] | – | – | – | – | 1610 | 178 | 873 | 293 | > 1000 |
| COc1ccc(NC(=O)[C@@H](CCCNC(=N)N)NC(=O)c2cc(NC(=O)[C@@H](CCCNC(=N)N)NC(=O)c3cc(NC(=O)[C@@H](CCC(=O)O)NC(=O)c4cc(NC(=O)[C@H](N)CCCNC(=N)N)ccc4OC)ccc3OC)ccc2OC)cc1C(N)=O [Compound 321] | – | – | – | – | 1820 | 225 | 2690 | 441 | > 1000 |
| COc1ccc(NC(=O)[C@H](CCCNC(=N)N)NC(=O)c2cc(NC(=O)[C@H](CCCNC(=N)N)NC(=O)c3cc(NC(=O)[C@H](CCC(=O)O)NC(=O)c4cc(NC(=O)[C@@H](N)CCCNC(=N)N)ccc4OC)ccc3OC)ccc2OC)cc1C(N)=O [Compound 325] | – | – | – | – | 2700 | 213 | 2230 | 505 | > 1000 |
| COc1ccc(NC(=O)[C@H](CCCCN)NC(=O)c2cc(NC(=O)[C@H](CCCCN)NC(=O)c3cc(NC(=O)[C@H](CCCCN)NC(=O)c4cc(NC(=O)[C@@H](N)Cc5c[nH]c6ccccc56)ccc4OC)ccc3OC)ccc2OCC(=O)O)cc1C(=O)N[C@@H](Cc1c[nH]c2ccccc12)C(N)=O [Compound 334] | – | – | – | – | > 10000 | 281 | 224 | 249 | ~15 (≈ 10.6 µM) |
